In PubChem BioAssay AID328 (DTP/NCI, 2004):
Where “and” joins values, the source holds several entries; their conditions need not be identical. Equal entries are not always repeated. Inconclusive results and toxic doses are left out.

Tested on: BDF1 mice, P388 leukemia ip, median survival T/C
Assay: NCI In Vivo Anticancer Drug Screen. Data for tumor model P388 Leukemia (intraperitoneal) in B6D2F1 (BDF1) mice
Conditions: endpoint: median survival time, higher = longer survival
Procedure, shortened: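 Survival ratio, drug arm over vehicle arm, in mice with a transplanted tumour.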

How did the T/C (dose: 8.0 mg/kg/injection, schedule: Q03HX024 (ip), vehicle: saline) turn out when `COc1cc2cc3c4cc(OC)c(OC)cc4cc[n+]3c(C)c2cc1OC` was run?
Its T/C is 150 % of control.

What about the T/C (dose: 12.5 mg/kg/injection, schedule: Q01DX009 (ip), vehicle: Klucel (hydroxypropylcellulose) (HPC)) of the same compound?
The T/C was 105 % of control.

What about the T/C (dose: 12.5 mg/kg/injection, schedule: Q01DX009 (ip), vehicle: saline) of the same compound?
Its T/C is 165 % of control.

What about the T/C (dose: 12.5 mg/kg/injection, schedule: Q01DX009 (ip), vehicle: water) of the same compound?
Its T/C is 195 % of control.

And the T/C (dose: 25.0 mg/kg/injection, schedule: Q01DX009 (ip), vehicle: water)?
Its T/C is 195 % of control.

And the T/C (dose: 25.0 mg/kg/injection, schedule: Q04DX003 (ip), vehicle: water)?
The T/C was 170 % of control.

And the T/C (dose: 32.0 mg/kg/injection, schedule: Q03HX008 (ip), vehicle: saline)?
The T/C was 154 % of control.

And the T/C (dose: 32.0 mg/kg/injection, schedule: Q03HX024 (ip), vehicle: saline)?
The T/C was 168 % of control.

And the T/C (dose: 37.5 mg/kg/injection, schedule: Q01DX001 (ip), vehicle: saline)?
Its T/C is 154 % of control.

And the T/C (dose: 37.5 mg/kg/injection, schedule: Q01DX009 (ip), vehicle: saline)?
Its T/C is 162 % of control.

What about the T/C (dose: 50.0 mg/kg/injection, schedule: Q01DX009 (ip), vehicle: saline) of the same compound?
The T/C was 172 % of control and 181 % of control and 184 % of control.

And the T/C (dose: 50.0 mg/kg/injection, schedule: Q01DX009 (ip), vehicle: water)?
Its T/C is 190 % of control.

And the T/C (dose: 50.0 mg/kg/injection, schedule: Q04DX003 (ip), vehicle: water)?
The T/C was 190 % of control.

What about the T/C (dose: 64.0 mg/kg/injection, schedule: Q01DX009 (ip), vehicle: saline) of the same compound?
Its T/C is 159 % of control.

What about the T/C (dose: 64.0 mg/kg/injection, schedule: Q01DX009 (sc), vehicle: saline) of the same compound?
The T/C was 100 % of control.

What about the T/C (dose: 64.0 mg/kg/injection, schedule: Q03HX024 (ip), vehicle: saline) of the same compound?
Its T/C is 163 % of control.

What about the T/C (dose: 75.0 mg/kg/injection, schedule: Q01DX001 (ip), vehicle: saline) of the same compound?
The T/C was 158 % of control.

What about the T/C (dose: 75.0 mg/kg/injection, schedule: Q01DX009 (ip), vehicle: saline) of the same compound?
Its T/C is 183 % of control.

What about the T/C (dose: 75.0 mg/kg/injection, schedule: Q04DX003 (ip), vehicle: saline) of the same compound?
The T/C was 150 % of control.

What about the T/C (dose: 100.0 mg/kg/injection, schedule: Q01DX001 (ip), vehicle: water) of the same compound?
Its T/C is 195 % of control.

And the T/C (dose: 100.0 mg/kg/injection, schedule: Q01DX009 (ip), vehicle: Klucel (hydroxypropylcellulose) (HPC))?
The T/C was 170 % of control.

What about the T/C (dose: 100.0 mg/kg/injection, schedule: Q01DX009 (ip), vehicle: saline with Tween-80) of the same compound?
Its T/C is 159 % of control and 177 % of control and 195 % of control.

And the T/C (dose: 100.0 mg/kg/injection, schedule: Q01DX009 (ip), vehicle: saline)?
Its T/C is 172 % of control and 195 % of control.

What about the T/C (dose: 100.0 mg/kg/injection, schedule: Q01DX009 (ip), vehicle: water) of the same compound?
The T/C was 210 % of control.

What about the T/C (dose: 100.0 mg/kg/injection, schedule: Q04DX002 (ip), vehicle: saline) of the same compound?
Its T/C is 163 % of control.

And the T/C (dose: 100.0 mg/kg/injection, schedule: Q04DX003 (ip), vehicle: saline)?
Its T/C is 153 % of control.

And the T/C (dose: 100.0 mg/kg/injection, schedule: Q04DX003 (ip), vehicle: water)?
The T/C was 190 % of control.

And the T/C (dose: 128.0 mg/kg/injection, schedule: Q01DX009 (ip), vehicle: saline)?
Its T/C is 163 % of control.

And the T/C (dose: 128.0 mg/kg/injection, schedule: Q01DX009 (sc), vehicle: saline)?
The T/C was 100 % of control.

What about the T/C (dose: 128.0 mg/kg/injection, schedule: Q03HX008 (ip), vehicle: saline) of the same compound?
Its T/C is 154 % of control.

What about the T/C (dose: 128.0 mg/kg/injection, schedule: Q03HX024 (ip), vehicle: saline) of the same compound?
The T/C was 181 % of control.

And the T/C (dose: 150.0 mg/kg/injection, schedule: Q01DX001 (ip), vehicle: saline)?
Its T/C is 162 % of control.

And the T/C (dose: 150.0 mg/kg/injection, schedule: Q01DX009 (ip), vehicle: saline)?
Its T/C is 195 % of control.

What about the T/C (dose: 150.0 mg/kg/injection, schedule: Q04DX003 (ip), vehicle: saline) of the same compound?
The T/C was 162 % of control.

And the T/C (dose: 200.0 mg/kg/injection, schedule: Q01DX001 (ip), vehicle: water)?
Its T/C is 185 % of control.

And the T/C (dose: 200.0 mg/kg/injection, schedule: Q01DX009 (ip), vehicle: saline with Tween-80)?
Its T/C is 86 % of control and 181 % of control and 218 % of control.

And the T/C (dose: 200.0 mg/kg/injection, schedule: Q01DX009 (ip), vehicle: saline)?
Its T/C is 172 % of control and 196 % of control and 204 % of control.

What about the T/C (dose: 200.0 mg/kg/injection, schedule: Q01DX009 (ip), vehicle: water) of the same compound?
The T/C was 165 % of control.

And the T/C (dose: 200.0 mg/kg/injection, schedule: Q04DX002 (ip), vehicle: saline)?
The T/C was 157 % of control.

What about the T/C (dose: 200.0 mg/kg/injection, schedule: Q04DX003 (ip), vehicle: saline) of the same compound?
The T/C was 169 % of control and 204 % of control.

What about the T/C (dose: 200.0 mg/kg/injection, schedule: Q04DX003 (ip), vehicle: water) of the same compound?
Its T/C is 205 % of control.

What about the T/C (dose: 256.0 mg/kg/injection, schedule: Q01DX009 (sc), vehicle: saline) of the same compound?
Its T/C is 100 % of control.

And the T/C (dose: 256.0 mg/kg/injection, schedule: Q03HX024 (ip), vehicle: saline)?
The T/C was 122 % of control.

And the T/C (dose: 256.0 mg/kg/injection, schedule: Q08DX002 (ip), vehicle: saline)?
Its T/C is 154 % of control.

What about the T/C (dose: 300.0 mg/kg/injection, schedule: Q01DX001 (ip), vehicle: saline) of the same compound?
Its T/C is 158 % of control.

What about the T/C (dose: 300.0 mg/kg/injection, schedule: Q01DX009 (ip), vehicle: saline) of the same compound?
The T/C was 216 % of control.

And the T/C (dose: 300.0 mg/kg/injection, schedule: Q04DX003 (ip), vehicle: saline)?
The T/C was 170 % of control.

What about the T/C (dose: 400.0 mg/kg/injection, schedule: Q01DX001 (ip), vehicle: water) of the same compound?
Its T/C is 170 % of control.

What about the T/C (dose: 400.0 mg/kg/injection, schedule: Q01DX009 (ip), vehicle: saline with Tween-80) of the same compound?
The T/C was 181 % of control.

What about the T/C (dose: 400.0 mg/kg/injection, schedule: Q01DX009 (ip), vehicle: saline) of the same compound?
Its T/C is 90 % of control.

And the T/C (dose: 400.0 mg/kg/injection, schedule: Q04DX002 (ip), vehicle: saline)?
Its T/C is 163 % of control and 191 % of control.

What about the T/C (dose: 400.0 mg/kg/injection, schedule: Q04DX003 (ip), vehicle: saline) of the same compound?
The T/C was 180 % of control and 190 % of control.

What about the T/C (dose: 400.0 mg/kg/injection, schedule: Q04DX003 (ip), vehicle: water) of the same compound?
Its T/C is 240 % of control.

And the T/C (dose: 512.0 mg/kg/injection, schedule: Q01DX001 (ip), vehicle: saline)?
Its T/C is 163 % of control.

What about the T/C (dose: 512.0 mg/kg/injection, schedule: Q01DX009 (sc), vehicle: saline) of the same compound?
The T/C was 109 % of control.

And the T/C (dose: 512.0 mg/kg/injection, schedule: Q08DX002 (ip), vehicle: saline)?
The T/C was 159 % of control.

And the T/C (dose: 600.0 mg/kg/injection, schedule: Q01DX001 (ip), vehicle: saline)?
The T/C was 200 % of control.

What about the T/C (dose: 600.0 mg/kg/injection, schedule: Q01DX009 (ip), vehicle: saline) of the same compound?
Its T/C is 116 % of control.

And the T/C (dose: 600.0 mg/kg/injection, schedule: Q04DX003 (ip), vehicle: saline)?
Its T/C is 170 % of control.

What about the T/C (dose: 800.0 mg/kg/injection, schedule: Q04DX003 (ip), vehicle: saline) of the same compound?
The T/C was 181 % of control.

And the T/C (dose: 1024.0 mg/kg/injection, schedule: Q01DX001 (ip), vehicle: saline)?
Its T/C is 109 % of control.

What about the T/C (dose: 1024.0 mg/kg/injection, schedule: Q01DX009 (sc), vehicle: saline) of the same compound?
Its T/C is 100 % of control.

What about the T/C (dose: 1024.0 mg/kg/injection, schedule: Q08DX002 (ip), vehicle: saline) of the same compound?
The T/C was 177 % of control.

And the T/C (dose: 2048.0 mg/kg/injection, schedule: Q01DX009 (sc), vehicle: saline)?
Its T/C is 100 % of control.

And the T/C (dose: 2048.0 mg/kg/injection, schedule: Q04DX003 (ip), vehicle: saline)?
The T/C was 109 % of control.
